Target: GST-Xa-hAAK1 (Homo sapiens (Human), UniProt Q2M2I8)
Experiment: AAK1 Kinase Assay;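 note: each compound tested across an eleven-point concentration series, with IC50 obtained through non-linear regression fitting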
Type: biochemical
Conditions: bacterially expressed GST-Xa-hAAK1 3.5 nM; ATP 22 μM; peptide substrate 1.5 μM; 3 hours at room temperature; Caliper LabChip 3000

Chain of GST-Xa-hAAK1 (Q2M2I8 whole entry): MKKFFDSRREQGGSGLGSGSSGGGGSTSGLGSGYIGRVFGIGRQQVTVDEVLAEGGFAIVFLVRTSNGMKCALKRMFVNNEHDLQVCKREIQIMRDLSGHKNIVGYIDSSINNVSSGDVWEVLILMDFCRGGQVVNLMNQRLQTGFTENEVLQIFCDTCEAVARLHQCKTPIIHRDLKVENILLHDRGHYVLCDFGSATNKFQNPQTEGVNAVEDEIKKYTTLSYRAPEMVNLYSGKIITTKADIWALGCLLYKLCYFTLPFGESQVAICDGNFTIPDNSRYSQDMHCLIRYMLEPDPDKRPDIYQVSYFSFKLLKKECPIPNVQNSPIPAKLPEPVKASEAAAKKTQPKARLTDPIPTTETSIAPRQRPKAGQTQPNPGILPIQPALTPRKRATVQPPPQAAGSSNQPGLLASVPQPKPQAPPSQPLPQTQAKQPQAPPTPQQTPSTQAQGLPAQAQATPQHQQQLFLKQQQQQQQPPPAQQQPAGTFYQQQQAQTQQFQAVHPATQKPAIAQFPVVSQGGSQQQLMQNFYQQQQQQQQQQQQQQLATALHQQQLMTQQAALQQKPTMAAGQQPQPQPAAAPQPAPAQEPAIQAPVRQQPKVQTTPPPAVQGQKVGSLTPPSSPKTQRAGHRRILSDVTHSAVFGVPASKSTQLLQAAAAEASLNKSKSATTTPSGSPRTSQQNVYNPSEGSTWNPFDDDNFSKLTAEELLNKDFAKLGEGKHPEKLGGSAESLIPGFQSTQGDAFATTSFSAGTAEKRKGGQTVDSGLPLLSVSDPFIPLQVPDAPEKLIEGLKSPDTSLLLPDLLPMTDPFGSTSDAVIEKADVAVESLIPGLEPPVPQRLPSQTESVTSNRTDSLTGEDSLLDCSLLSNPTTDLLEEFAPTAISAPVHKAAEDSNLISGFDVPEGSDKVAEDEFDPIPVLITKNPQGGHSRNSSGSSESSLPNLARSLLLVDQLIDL

SMILES | IC50 [nM]
CC(C)C[C@](C)(N)COc1ccc(-c2ccnc(F)c2)cc1C#N [Example 94, (S)-2-((2-amino-2,4-dimethylpentyl)oxy)-5-(2-fluoropyridin-4-yl)benzonitrile] | 4.7
COc1cnccc1-c1ccc(OC[C@@](C)(N)CC(C)C)c(C(F)(F)F)c1 [Example 46, (S)-1-(4-(3-methoxypyridin-4-yl)-2-(trifluoromethyl)phenoxy)-2,4-dimethylpentan-2-amine] | 0.86
Cc1cc(-c2ccc(OC[C@@H](N)CC(C)C)c(C#N)c2)ccn1 [Example 15, (S)-2-((2-amino-4-methylpentyl)oxy)-5-(2-methylpyridin-4-yl)benzonitrile] | 0.81
COC(=O)Nc1cc(-c2ncc(OC[C@@](C)(N)CC(C)C)cn2)ccn1 [Example 210, (S)-methyl (4-(5-((2-amino-2,4-dimethylpentyl)oxy)pyrimidin-2-yl)pyridin-2-yl)carbamate] | 79
CC(=O)Nc1cc(-c2ccc(OC[C@@](C)(N)CC(C)C)c(C#N)c2)ccn1 [Example 21, (S)—N-(4-(4-((2-amino-2,4-dimethylpentyl)oxy)-3-cyanophenyl)pyridin-2-yl)acetamide] | 0.74
COC(=O)Nc1cc(-c2ccc(OC[C@@](C)(N)CC(C)C)c(F)c2)ccn1 [Example 28, (S)-methyl (4-(4-((2-amino-2,4-dimethylpentyl)oxy)-3-fluorophenyl)pyridin-2-yl)carbamate] | 1.2
COC(=O)Nc1cc(-c2ccc(OC[C@@](C)(N)CC(C)C)c(C(F)(F)F)c2)ccn1 [Example 20, (S)-methyl (4-(4-((2-amino-2,4-dimethylpentyl)oxy)-3-(trifluoromethyl)phenyl)pyridin-2-yl)carbamate] | 0.34
COC(=O)Nc1cc(-c2ccc(OC[C@@](C)(N)CC(C)C)c(C#N)c2)c(F)cn1 [Example 106, (S)-methyl (4-(4-((2-amino-2,4-dimethylpentyl)oxy)-3-cyanophenyl)-5-fluoropyridin-2-yl)carbamate] | 0.62
CC(C)C[C@](C)(N)COc1ccc(-c2ccnc(C(F)F)c2)nc1C(F)F [Example 123, (S)-1-((2′,6-bis(difluoromethyl)-[2,4′-bipyridin]-5-yl)oxy)-2,4-dimethylpentan-2-amine] | 2.2
COC(=O)Nc1cc(-c2ccc(OC[C@@H](N)CC(C)C)c(F)c2)ccn1 [Example 13, (S)-methyl (4-(4-((2-amino-4-methylpentyl)oxy)-3-fluorophenyl)pyridin-2-yl)carbamate] | 1.1
COC(=O)Nc1cc(-c2ccc(OC[C@@](C)(N)CC(C)C)c(CO)c2)ccn1 [Example 32, (S)-methyl (4-(4-((2-amino-2,4-dimethylpentyl)oxy)-3-(hydroxymethyl)phenyl)pyridin-2-yl)carbamate] | 4.5
Cc1cc(-c2cnc(OC[C@@](C)(N)CC(C)C)c(F)c2)ccn1 [Example 97, (S)-1-((5-fluoro-2′-methyl-[3,4′-bipyridin]-6-yl)oxy)-2,4-dimethylpentan-2-amine] | 142
CC(=O)Nc1cc(-c2ccc(OC[C@@H](N)CC(C)C)c(C)c2)ccn1 [Example 7, (S)—N-(4-(4-((2-amino-4-methylpentyl)oxy)-3-methylphenyl)pyridin-2-yl)acetamide] | 0.42
Cc1cc(-c2cc(C)c(OC[C@@](C)(N)CC(C)C)c(F)n2)ccn1 [Example 107, (S)-1-((6-fluoro-2′,4-dimethyl-[2,4′-bipyridin]-5-yl)oxy)-2,4-dimethylpentan-2-amine] | 50
CC(=O)Nc1cc(-c2ccc(OC[C@@H](N)CC(C)C)c(OC(F)(F)F)c2)ccn1 [Example 6, (S)—N-(4-(4-((2-amino-4-methylpentyl)oxy)-3-(trifluoromethoxy)phenyl)pyridin-2-yl)acetamide] | 0.47
Cc1cc(-c2ccc(OC[C@@H](N)CC(C)C)c(-c3ccno3)c2)ccn1 [Example 18, (S)-1-(2-(isoxazol-5-yl)-4-(2-methylpyridin-4-yl)phenoxy)-4-methylpentan-2-amine] | 5
CC(C)C[C@@](C)(N)COc1ccc(-c2ccnc(C(F)F)c2)nc1C(F)F [Example 174, (R)-1-((2′,6-bis(difluoromethyl)-[2,4′-bipyridin]-5-yl)oxy)-2,4-dimethylpentan-2-amine] | 54

Continued, values first:

IC50 [nM] | SMILES
4.5 | COC(=O)Nc1cc(-c2ccc(OCC(C)(N)CC(C)C)c(C)c2C)ccn1 (centres unmarked) [Example 31, methyl (4-(4-((2-amino-2,4-dimethylpentyl)oxy)-2,3-dimethylphenyl)pyridin-2-yl)carbamate]
150 | Cc1cc(-c2cc(C(F)F)c(OC[C@@](C)(O)CC(C)C)cn2)ccn1 [Example 178, (S)-1-((4-(difluoromethyl)-2′-methyl-[2,4′-bipyridin]-5-yl)oxy)-2,4-dimethylpentan-2-ol]
0.98 | CC(C)C[C@](C)(N)COc1cnc(-c2ccnc3ccccc23)cc1Cl [Example 236, (S)-1-((4-chloro-6-(quinolin-4-yl)pyridin-3-yl)oxy)-2,4-dimethylpentan-2-amine]
0.99 | CC(C)C[C@](C)(N)COc1ncc(-c2ccnc3ccc(F)cc23)cc1Cl [Example 191, (S)-1-((3-chloro-5-(6-fluoroquinolin-4-yl)pyridin-2-yl)oxy)-2,4-dimethylpentan-2-amine]
1.2 | CC(C)C[C@](C)(N)COc1ncc(-c2ccnc3cc(F)ccc23)cc1Cl [Example 190, (S)-1-((3-chloro-5-(7-fluoroquinolin-4-yl)pyridin-2-yl)oxy)-2,4-dimethylpentan-2-amine]
1.1 | Cc1cc(-c2ccnc3cc(F)cc(F)c23)cnc1OC[C@@](C)(N)CC(C)C [Example 224, (S)-1-((5-(5,7-difluoroquinolin-4-yl)-3-methylpyridin-2-yl)oxy)-2,4-dimethylpentan-2-amine]
53 | CC(C)C[C@](C)(O)COc1cnc(-c2ccnc3ccccc23)cc1C(F)F [Example 176, (S)-1-((4-(difluoromethyl)-6-(quinolin-4-yl)pyridin-3-yl)oxy)-2,4-dimethylpentan-2-ol]
0.46 | CC(C)C[C@](C)(N)COc1ccc(-c2ccnc3cc(Cl)ccc23)cc1C(F)(F)F [Example 88, (S)-1-(4-(7-chloroquinolin-4-yl)-2-(trifluoromethyl)phenoxy)-2,4-dimethylpentan-2-amine]
0.83 | CC(C)C[C@](C)(N)COc1ccc(-c2ccnc3ccccc23)cc1C#N [Example 104, (S)-2-((2-amino-2,4-dimethylpentyl)oxy)-5-(quinolin-4-yl)benzonitrile]
0.51 | CC(C)C[C@](C)(N)COc1ccc(-c2ccnc3ccc(F)cc23)cc1C(F)(F)F [Example 73, (S)-1-(4-(6-fluoroquinolin-4-yl)-2-(trifluoromethyl)phenoxy)-2,4-dimethylpentan-2-amine]
0.86 | CC(C)C[C@](C)(N)COc1ccc(-c2ncnc3ccccc23)cc1C(F)(F)F [Example 214, (S)-2,4-dimethyl-1-(4-(quinazolin-4-yl)-2-(trifluoromethyl)phenoxy)pentan-2-amine]
2.2 | Cc1cc(-c2cc(C(F)F)c(OC[C@](N)(CF)CC(C)C)cn2)ccn1 [Example 187, (S)-1-((4-(difluoromethyl)-2′-methyl-[2,4′-bipyridin]-5-yl)oxy)-2-(fluoromethyl)-4-methylpentan-2-amine]
530 | Cc1cc(-c2cc(C(F)F)c(OC[C@@](C)(N)CC(C)C)cn2)cnn1 [Example 162, (S)-1-((4-(difluoromethyl)-6-(6-methylpyridazin-4-yl)pyridin-3-yl)oxy)-2,4-dimethylpentan-2-amine]
16 | COc1cc(-c2ccnc3ccccc23)cnc1OC[C@@](C)(N)CC(C)C [Example 79, (S)-1-((3-methoxy-5-(quinolin-4-yl)pyridin-2-yl)oxy)-2,4-dimethylpentan-2-amine]
0.74 | Cc1cc(-c2ccnc3cc(Cl)ccc23)cnc1OC[C@@](C)(N)CC(C)C [Example 225, (S)-1-((5-(7-chloroquinolin-4-yl)-3-methylpyridin-2-yl)oxy)-2,4-dimethylpentan-2-amine]
0.24 | CC(C)C[C@](C)(N)COc1cnc(-c2ccnc3ccccc23)cc1C(F)(F)F [Example 145, (S)-2,4-dimethyl-1-((6-(quinolin-4-yl)-4-(trifluoromethyl)pyridin-3-yl)oxy)pentan-2-amine]
21 | CC(C)C[C@](C)(N)COc1ccc(-c2ccnc3ccccc23)c2ccccc12 [Example 209, (S)-2,4-dimethyl-1-((4-(quinolin-4-yl)naphthalen-1-yl)oxy)pentan-2-amine]
27 | Cc1nc(-c2ccnc3cc(F)ccc23)ccc1OC[C@@](C)(N)CC(C)C [Example 137, (S)-1-((6-(7-fluoroquinolin-4-yl)-2-methylpyridin-3-yl)oxy)-2,4-dimethylpentan-2-amine]
1.4 | CC(C)C[C@](C)(N)COc1ccc(-c2ccnc3cc(F)cc(F)c23)nc1C(F)F [Example 129]
0.92 | CC(C)C[C@](C)(N)COc1ncc(-c2ccnc3cc(F)cc(F)c23)cc1C#N [Example 77, (S)-2-((2-amino-2,4-dimethylpentyl)oxy)-5-(5,7-difluoroquinolin-4-yl)nicotinonitrile]
17 | CC(C)C[C@@](C)(N)COc1cnc(-c2ccnc(C(F)F)c2)cc1C(F)F [Example 175, (R)-1-((2′,4-bis(difluoromethyl)-[2,4′-bipyridin]-5-yl)oxy)-2,4-dimethylpentan-2-amine]
34 | CC(C)CC(C)(N)COc1c(F)cc(-c2ccnc3ccccc23)cc1Cl (centres unmarked) [Example 75, 1-(2-chloro-6-fluoro-4-(quinolin-4-yl)phenoxy)-2,4-dimethylpentan-2-amine]
0.2 | COC(=O)Nc1cc(-c2cnc(OC[C@@](C)(N)CC(C)C)c(C(F)F)c2)ccn1 [Example 196, (S)-methyl (6-((2-amino-2,4-dimethylpentyl)oxy)-5-(difluoromethyl)-[3,4′-bipyridin]-2′-yl)carbamate]
0.31 | CC(C)C[C@](C)(N)COc1ncc(-c2ccnc3cc(Cl)ccc23)cc1C(F)F [Example 197, (S)-1-((5-(7-chloroquinolin-4-yl)-3-(difluoromethyl)pyridin-2-yl)oxy)-2,4-dimethylpentan-2-amine]
